# Data published in US12629341B2 (priority 2019, dated 2026).
# Assays:
# [1] = biological target: PrP^Sc (Mesocricetus auratus, UniProt P04273); parameters: species or system Syrian hamster; conditions: Hyper-hamster PrPSc pellet
# [2] = biological target: PrP^Sc (Mus musculus, UniProt P04925); conditions: FVB-RML mouse PrPSc pellet
# Sequence of PrP^Sc (Mus musculus, UniProt P04925) (P04925 23-230 limits assumed): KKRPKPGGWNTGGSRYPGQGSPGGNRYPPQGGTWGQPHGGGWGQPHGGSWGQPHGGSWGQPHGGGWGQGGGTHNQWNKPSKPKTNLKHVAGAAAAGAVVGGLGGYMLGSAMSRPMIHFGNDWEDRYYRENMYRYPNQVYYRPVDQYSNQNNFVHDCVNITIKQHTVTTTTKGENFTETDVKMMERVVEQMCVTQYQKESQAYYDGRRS
# Sequence of PrP^Sc (Mesocricetus auratus, UniProt P04273) (P04273 23-231 limits assumed): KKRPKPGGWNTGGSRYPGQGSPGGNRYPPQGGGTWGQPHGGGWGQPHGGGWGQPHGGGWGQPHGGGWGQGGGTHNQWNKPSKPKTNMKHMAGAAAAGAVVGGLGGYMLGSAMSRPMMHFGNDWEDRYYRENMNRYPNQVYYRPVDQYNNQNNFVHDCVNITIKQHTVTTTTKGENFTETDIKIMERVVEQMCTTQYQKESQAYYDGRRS
smiles,measurement,setting,value
CCCCCCCCCCCC(=O)N(C)CC(=O)[O-].[Na+] [Sarkosyl],calculated amount of lipid: DG,[1],0
same,calculated amount of lipid: FA (free fatty acid),[1],0
same,calculated amount of lipid: FC (free cholesterol),[1],24.35
same,calculated amount of lipid: PC (phosphatidylcholine),[1],21.46
same,calculated amount of lipid: PE (phosphatidylethanolamine),[1],8.57
same,calculated amount of lipid: PI (phosphatidylinositol),[1],0
same,calculated amount of lipid: PS (phosphatidylserine),[1],2.23
same,calculated amount of lipid: SM (sphingomyelin),[1],3.12
same,calculated amount of lipid: CE (cholesterol esters),[2],3.54
same,calculated amount of lipid: DG,[2],0
same,calculated amount of lipid: FA (free fatty acid),[2],0
same,calculated amount of lipid: FC (free cholesterol),[2],31.17
same,calculated amount of lipid: PC (phosphatidylcholine),[2],16.80
same,calculated amount of lipid: PE (phosphatidylethanolamine),[2],21.83
same,calculated amount of lipid: PI (phosphatidylinositol),[2],1.92
same,calculated amount of lipid: PS (phosphatidylserine),[2],8.05
same,calculated amount of lipid: SM (sphingomyelin),[2],1.58
same,calculated amount of lipid: TG (triglycerides),[2],4.29
